From patent US11369618B2, “Compounds, compositions and methods for prevention and/or treatment of cancer” (THE TRUSTEES OF THE UNIVERSITY OF PENNSYLVANIA, priority 2016, dated 2022)

System: Melanoma cells engineered to maintain c-Myc protein
Assay: c-Myc-transduced WM46 melanoma cells treated with G-1
Assay type: cell-based, human
Settings: c-Myc-transduced WM46, 16 hours
Experimental: FIG. 12 illustrates the finding that GPER signaling results in loss of c-Myc in melanoma. Panels A-C: Western blots of heMel (Panel A), WM46 (Panel B), and B16F10 (Panel C) melanoma transiently treated with E2 for 3 days, followed by 4 day withdraw. Panel D: Western blot of WM46 cells treated with a specific GPER agonist (G-1) for 16 hours. Panel E: Western blot of luciferase- or c-Myc-transduced WM46 cells treated with G-1 for 16 hours. Panel F: Western blot of WM46 cells treated with G-1 across a time course. Panel G: Western blot of WM46 cells treated with G-1, 100 μM PKA inhibitor Rp-8-Br-cAMPS (PKAi), or both for 1 hour. Panel H: Western blot of WM46 cells treated with G-1, […] proteasome inhibitor (MG132), or both for 1 hour. Panel I: Western blot of WM46 cells treated with 10 μg/ml cyclohexamide (CHX) with and without G-1.
Furthermore, GPER signaling induced a relative growth arrest, associated with hypophosphorylation of Rb in both mouse and human melanoma cells (FIG. 12, Panel D).

Compound: CC(=O)c1ccc2c(c1)[C@@H]1C=CC[C@@H]1[C@H](c1cc3c(cc1Br)OCO3)N2 (relative stereo) [Compound G-1, rel-1-[4-(6-bromo-1,3-benzodioxol-5-yl)-3aR,4S,5,9bS-tetrahydro-3H-cyclopenta[c]quinolin-8-yl]-ethanone]
- response of cells engineered to maintain c-Myc protein: resistant
